For 18 compounds, IC50 results are on record in patent US6924302B2, “Substituted triazole diamine derivatives as kinase inhibitors” (Ortho McNeil Pharmaceutical, Inc., priority 2000, dated 2005).

In one experiment the target is T1, CDK1:Cyclin-B (Homo sapiens, UniProt P06493).
T1 construct: purchased New England Biolabs 6020; host or cells: insect cells
The experiment is described as follows: CDK1 Screening Assay. It counts as biochemical. The method in brief:
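Human CDK1:cyclin-B (30 ng/well) with biotinylated histone-H1 peptide and ^33P-γ-ATP, 1 h at 30° C, 1% DMSO, on streptavidin FlashPlate; incorporation read by scintillation.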

Experiment [1] has as its target T2, VEGF-R (vascular endothelial growth factor receptor-2) (Rattus norvegicus, UniProt O08775).
T2 construct: polyhistidine (6xHIS) (N)
The experiment is described as follows: VEGF-R Screening Assay. It counts as biochemical.

For experiment [2], the target named is T3, Glycogen Synthase Kinase-3 (beta isoform) (Oryctolagus cuniculus, UniProt G1T8E2).
T3 construct: purchased New England Biolabs 6040; host or cells: E. coli
Briefly: Kinase Selectivity Assay Glycogen Synthase Kinase-3. It counts as biochemical, rabbit. Here is the method:
(§1) Assays to test compound inhibition of other kinases were preformed using methods that measure the amount of phosphorylation of a biotinylated peptide substrate. Biotinylated peptide substrates were selected from the literature as appropriate for the enzyme being evaluated. […] Assay conditions vary slightly for each protein kinase, for example, insulin receptor kinase requires 10 mM MnCl2 for activity and Calmodulin-dependent protein kinase requires calmodulin and 10 mM CaCl2. These assay conditions are known in the art. The reaction mixture was dispensed into the wells of a streptavidin coated Flashplate and 1 μl drug stock in 100% DMSO was added to a 100 μl reaction volume resulting in a final concentration of 1% DMSO on the reaction. Enzyme was diluted in 50 mM Tris-HCl pH=8.0, 0.1% BSA and add to each well. The reaction was incubated for one hour at 30° C. in the presence of compound. After one hour the reaction mix was aspirated from the plate and the plate was washed with PBS containing 100 mM EDTA. The plate was read on a scintillation counter to determine ^33P-γ-ATP incorporated into the immobilized peptide. Test compounds were assayed in duplicate at 8 concentrations [100 uM, 10 uM, 1 uM, 100 nM, 10 nM, 1 nM, 100 pM, 10 pM]. A maximum and minimum signal for the assay was determined on each plate. The IC50 was calculated from the dose response curve of the percent inhibition of the maximum signal in the assay according to the formula [max signal—background/test compound signal—background (100)=% inhibition] by graphing the percent inhibition against the log concentration of test compound. Known inhibitor compounds appropriate for the kinase being assayed were also included on each plate.
(§2) CDK2 in complex with cyclin A is commercially available (Upstate Biotech, Lake Placid, N.Y.). The CDK4 complex was composed of a mouse CDK4 protein and a mouse Cyclin D1 protein (The mouse CDK4 protein was genetically fused to an N-terminal Flag-epitope tag and the mouse Cyclin D1 protein was fused with an N-terminal AU-1 epitope tag. The genes encoding these proteins were transferred to commercially available baculoviral vectors. The recombinant CDK4/D1 complex was then made by co-infecting commercially available insect cells with viruses carrying these two constructs). […] ERK-1 protein (Discontinued from Calbiochem). EGFR (epidermal growth factor receptor) is purified from human A431 cell membranes (Sigma, St. Louis, Mo., Cat.# E3641).

Experiment [3] addresses T4, MAP Kinase (ERK-2 isoform) (Rattus norvegicus, UniProt P63086).
T4 construct: polyhistidine (N); host or cells: E. coli
Briefly: Kinase Selectivity Assay MAP Kinase (ERK-2). It counts as biochemical. As for the experimental part: as §1, §2

For experiment [4], the target named is T5, PDGF-R (platelet derived growth factor receptor) beta subunit kinase domain (Homo sapiens, UniProt P09619).
T5 construct: nucleotides 1874-3507 of the human PDGF-R beta subunit kinase domain; polyhistidine (N)
Briefly: Kinase Selectivity Assay PDGF-R. Format: biochemical. As for the experimental part: as §1, §2

Experiment [5] deals with T6, Casein Kinase 2 (alpha and beta subunits) (Homo sapiens, UniProt P68400).
T6 construct: purchased New England Biolabs 6010; host or cells: E. coli
The experiment is described as follows: Kinase Selectivity Assay Casein Kinase 2. Format: biochemical. Here is the method: as §1, §2

The next experiment has as its target Insulin Receptor Kinase (Homo sapiens, UniProt P06213). The experiment is described as follows: Kinase Selectivity Assay Insulin Receptor Kinase. Format: biochemical. Here is the method:
as §1, §2

Another experiment addresses T7, Protein Kinase A (Bos taurus, UniProt P00517).
T7 construct: purified from bovine heart; purchased Upstate Biotech 14-114; host or cells: bovine heart
Briefly: Kinase Selectivity Assay Protein Kinase A. Format: biochemical, bovine. As for the experimental part: as §1, §2

The target of experiment [6] is T8, Calmodulin Kinase (calmodulin-dependent protein kinase 2) (Rattus norvegicus, UniProt P11275).
T8 construct: a truncated version of the alpha subunit of the rat protein; purchased New England Biolabs 6060; host or cells: insect cells
Briefly: Kinase Selectivity Assay Calmodulin Kinase. Format: biochemical. Here is the method: as §1, §2

Experiment [7] concerns the target T9, HER2 (human epidermal growth factor receptor-2) (Homo sapiens, UniProt P04626).
T9 construct: begins at amino acid 676 followed by the remainder of the HER2 cytoplasmic domain; polyhistidine (N)
The experiment is described as follows: Kinase Selectivity Assay HER2. Format: biochemical. Here is the method:
as §1, §2

Experiment [8] has as its target T10, CDK2 in complex with cyclin A (Homo sapiens, UniProt P24941).
T10 construct: purchased Upstate Biotech
Briefly: Kinase Selectivity Assay CDK2. Format: biochemical. Particulars: Table 1. As for the experimental part: as §1, §2

Where [9] appears, read: Kinase Selectivity, Tables 2a-2k, read-out: CDK1 IC50.
[10] abbreviates: Kinase Selectivity, Tables 2a-2k, read-out: VEGF-R IC50.
[11] abbreviates: Kinase Selectivity, Tables 2a-2k, read-out: Caseine Kinase 2 IC50.
Where [12] appears, read: Kinase Selectivity, Tables 2a-2k, read-out: GSK-3 IC50.
The mark [13] stands for this setting: Kinase Selectivity, Tables 2a-2k, read-out: PDGF-R kinase IC50.
Setting [14] is: Kinase Selectivity, Tables 2a-2k, read-out: HER2 Kinase IC50.

Molecules are shown by their SMILES. Where two headings read alike, the source gives them in different places.

T2 sequence (O08775 786-1343): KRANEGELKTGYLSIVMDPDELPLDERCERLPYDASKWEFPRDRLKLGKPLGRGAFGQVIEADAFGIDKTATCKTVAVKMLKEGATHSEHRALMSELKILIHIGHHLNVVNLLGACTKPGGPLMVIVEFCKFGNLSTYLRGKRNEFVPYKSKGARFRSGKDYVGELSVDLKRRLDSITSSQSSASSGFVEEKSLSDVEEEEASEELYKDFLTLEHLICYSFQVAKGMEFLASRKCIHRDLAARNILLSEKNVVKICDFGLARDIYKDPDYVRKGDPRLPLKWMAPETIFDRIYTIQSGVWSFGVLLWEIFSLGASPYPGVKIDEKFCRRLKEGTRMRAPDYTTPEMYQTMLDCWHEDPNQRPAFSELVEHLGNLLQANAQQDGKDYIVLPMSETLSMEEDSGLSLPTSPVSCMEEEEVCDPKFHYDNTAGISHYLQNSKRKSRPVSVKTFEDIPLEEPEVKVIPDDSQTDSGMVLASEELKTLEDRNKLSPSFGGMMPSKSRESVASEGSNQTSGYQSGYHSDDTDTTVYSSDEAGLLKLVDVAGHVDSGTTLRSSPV
T3 sequence (G1T8E2 1-432): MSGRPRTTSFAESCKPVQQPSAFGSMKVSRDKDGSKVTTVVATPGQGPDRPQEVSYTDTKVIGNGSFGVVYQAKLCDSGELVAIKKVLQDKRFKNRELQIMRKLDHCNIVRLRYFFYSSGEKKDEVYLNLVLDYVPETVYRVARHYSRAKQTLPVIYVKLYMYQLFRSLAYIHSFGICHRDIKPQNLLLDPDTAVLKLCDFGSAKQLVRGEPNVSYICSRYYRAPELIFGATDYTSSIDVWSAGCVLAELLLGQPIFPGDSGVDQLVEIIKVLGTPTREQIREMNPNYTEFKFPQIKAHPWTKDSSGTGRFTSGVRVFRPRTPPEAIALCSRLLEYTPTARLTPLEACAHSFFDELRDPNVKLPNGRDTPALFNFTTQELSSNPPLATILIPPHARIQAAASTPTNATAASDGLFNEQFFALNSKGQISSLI
T5 sequence (P09619 564-1106): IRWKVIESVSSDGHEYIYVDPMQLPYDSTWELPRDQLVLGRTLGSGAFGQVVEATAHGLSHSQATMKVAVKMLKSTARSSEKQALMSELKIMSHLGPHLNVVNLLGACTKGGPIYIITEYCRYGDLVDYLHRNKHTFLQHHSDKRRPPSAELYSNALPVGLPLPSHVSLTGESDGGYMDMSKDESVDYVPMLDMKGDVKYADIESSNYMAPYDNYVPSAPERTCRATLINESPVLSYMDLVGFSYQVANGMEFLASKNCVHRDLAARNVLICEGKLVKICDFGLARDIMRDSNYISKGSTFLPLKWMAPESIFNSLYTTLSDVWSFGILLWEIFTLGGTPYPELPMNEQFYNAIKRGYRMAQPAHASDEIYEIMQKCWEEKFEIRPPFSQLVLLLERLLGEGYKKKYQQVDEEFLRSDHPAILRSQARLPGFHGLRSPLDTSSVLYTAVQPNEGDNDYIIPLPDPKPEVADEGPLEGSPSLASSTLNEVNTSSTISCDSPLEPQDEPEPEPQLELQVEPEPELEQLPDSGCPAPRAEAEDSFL
T6 sequence (P68400 whole entry): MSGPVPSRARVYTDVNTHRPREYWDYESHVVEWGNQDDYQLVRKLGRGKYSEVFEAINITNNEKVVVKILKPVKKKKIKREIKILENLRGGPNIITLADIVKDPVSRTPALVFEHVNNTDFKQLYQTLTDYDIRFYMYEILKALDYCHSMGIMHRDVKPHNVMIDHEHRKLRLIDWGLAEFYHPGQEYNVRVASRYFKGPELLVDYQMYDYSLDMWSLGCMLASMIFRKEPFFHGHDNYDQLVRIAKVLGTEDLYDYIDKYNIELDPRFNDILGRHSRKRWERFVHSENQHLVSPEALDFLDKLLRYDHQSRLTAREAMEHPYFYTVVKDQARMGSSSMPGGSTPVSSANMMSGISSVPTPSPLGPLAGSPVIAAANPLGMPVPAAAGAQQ
T6 sequence (P67870 whole entry partner): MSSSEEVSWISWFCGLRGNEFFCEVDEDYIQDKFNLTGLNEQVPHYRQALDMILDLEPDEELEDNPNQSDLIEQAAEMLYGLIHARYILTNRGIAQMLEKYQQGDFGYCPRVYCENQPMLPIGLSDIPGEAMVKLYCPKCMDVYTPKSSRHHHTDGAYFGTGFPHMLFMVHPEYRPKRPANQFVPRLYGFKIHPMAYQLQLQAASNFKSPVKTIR
T1 sequence (P06493 whole entry): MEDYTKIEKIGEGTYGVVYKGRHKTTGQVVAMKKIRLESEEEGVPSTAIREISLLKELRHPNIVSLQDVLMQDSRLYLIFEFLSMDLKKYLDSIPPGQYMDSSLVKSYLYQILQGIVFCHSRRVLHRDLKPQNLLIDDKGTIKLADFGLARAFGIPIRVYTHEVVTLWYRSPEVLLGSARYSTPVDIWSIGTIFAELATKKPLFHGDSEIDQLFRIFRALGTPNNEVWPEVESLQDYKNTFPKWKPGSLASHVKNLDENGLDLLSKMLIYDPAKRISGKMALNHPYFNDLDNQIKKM
T1 sequence (P14635 whole entry partner): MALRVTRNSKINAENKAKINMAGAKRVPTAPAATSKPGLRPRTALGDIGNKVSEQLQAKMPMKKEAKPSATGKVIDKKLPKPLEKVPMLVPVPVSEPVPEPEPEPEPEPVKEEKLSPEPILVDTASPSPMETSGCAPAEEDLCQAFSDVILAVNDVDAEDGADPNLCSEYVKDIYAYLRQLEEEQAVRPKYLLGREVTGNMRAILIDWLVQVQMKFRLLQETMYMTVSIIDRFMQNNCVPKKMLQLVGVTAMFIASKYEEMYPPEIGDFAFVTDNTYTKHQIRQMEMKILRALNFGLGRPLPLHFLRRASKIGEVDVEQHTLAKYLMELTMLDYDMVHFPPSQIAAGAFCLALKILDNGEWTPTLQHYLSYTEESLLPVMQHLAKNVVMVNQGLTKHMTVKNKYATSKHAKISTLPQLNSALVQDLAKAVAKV
T9 sequence (P04626 676-1255 limits assumed): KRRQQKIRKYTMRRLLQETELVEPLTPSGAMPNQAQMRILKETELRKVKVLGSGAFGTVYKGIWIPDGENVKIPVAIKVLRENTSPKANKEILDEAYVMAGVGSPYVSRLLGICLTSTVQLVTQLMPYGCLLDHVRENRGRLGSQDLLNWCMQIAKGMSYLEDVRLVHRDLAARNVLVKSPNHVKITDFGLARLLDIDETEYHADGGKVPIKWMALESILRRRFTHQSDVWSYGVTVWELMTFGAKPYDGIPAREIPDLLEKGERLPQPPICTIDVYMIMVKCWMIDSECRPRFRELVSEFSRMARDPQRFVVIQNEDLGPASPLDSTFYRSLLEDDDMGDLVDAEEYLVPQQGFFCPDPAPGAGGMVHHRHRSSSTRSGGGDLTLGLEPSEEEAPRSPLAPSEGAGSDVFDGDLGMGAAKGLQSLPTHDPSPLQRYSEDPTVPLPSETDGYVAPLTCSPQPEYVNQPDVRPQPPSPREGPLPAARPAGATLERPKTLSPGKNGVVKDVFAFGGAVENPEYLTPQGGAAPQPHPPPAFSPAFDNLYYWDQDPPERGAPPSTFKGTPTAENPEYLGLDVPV
T4 sequence (P63086 whole entry, canonical isoform): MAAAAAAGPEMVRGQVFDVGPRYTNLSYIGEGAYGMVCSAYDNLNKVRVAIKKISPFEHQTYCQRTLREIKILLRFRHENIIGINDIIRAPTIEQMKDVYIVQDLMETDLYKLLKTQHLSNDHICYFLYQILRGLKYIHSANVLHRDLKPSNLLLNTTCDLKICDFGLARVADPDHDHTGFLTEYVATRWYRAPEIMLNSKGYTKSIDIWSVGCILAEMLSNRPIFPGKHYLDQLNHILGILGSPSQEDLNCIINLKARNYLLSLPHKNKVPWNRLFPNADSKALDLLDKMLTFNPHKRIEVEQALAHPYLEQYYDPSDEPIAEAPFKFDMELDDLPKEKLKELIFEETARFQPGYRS
Chain of Insulin Receptor Kinase (P06213 980-1352): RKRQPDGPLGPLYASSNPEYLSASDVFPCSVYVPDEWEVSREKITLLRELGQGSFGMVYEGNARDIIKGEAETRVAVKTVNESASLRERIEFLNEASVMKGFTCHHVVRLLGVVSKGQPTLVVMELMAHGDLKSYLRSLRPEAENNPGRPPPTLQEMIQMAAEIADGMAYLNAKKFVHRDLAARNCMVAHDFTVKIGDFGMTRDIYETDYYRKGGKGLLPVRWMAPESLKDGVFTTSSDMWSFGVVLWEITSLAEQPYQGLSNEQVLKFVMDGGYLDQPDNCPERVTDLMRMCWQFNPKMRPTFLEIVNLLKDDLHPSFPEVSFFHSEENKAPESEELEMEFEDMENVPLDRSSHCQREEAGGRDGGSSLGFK

Turning to `Cc1ccc(F)c(C(=O)n2nc(Nc3ccc(S(N)(=O)=O)cc3)nc2N)c1F` [Cpd 2, 4-[[5-amino-1-(2,6-difluoro-3-methylbenzoyl)-1H-1,2,4-triazol-3-yl]amino]-benzenesulfonamide], the IC50 at CDK1:Cyclin-B (setting [9]) was 3 nM; at CDK1:Cyclin-B (Table 1, read-out: CDK1 IC50), 3.2 nM; in experiment [1] (setting [10]) it was 366 nM; in experiment [1] (Table 1, read-out: VEGF-R IC50), 366 nM; in [2] it was 31 nM; in [3], 9480 nM. The same compound gave an IC50 in experiment [4] of 10700 nM.
Take `Cc1ccsc1C(=O)n1nc(Nc2ccc(S(N)(=O)=O)cc2)nc1N` [Cpd 15, 4-[[5-amino-1-[(3-methyl-2-thienyl)carbonyl]-1H-1,2,4-triazol-3-yl]amino]-benzenesulfonamide]: the IC50 is 4.8 nM on CDK1:Cyclin-B (setting [9]); 4.8 nM on CDK1:Cyclin-B (Table 1, read-out: CDK1 IC50); over 100000 nM in [5] (setting [11]); 1.8 nM in [2] (setting [12]); 79 nM in [4] (setting [13]).
`Cc1cc(C)c(C(=O)n2nc(Nc3ccc(S(N)(=O)=O)cc3)nc2N)s1` [Cpd 33, 4-[[5-amino-1-[(3,5-dimethyl-2-thienyl)carbonyl]-1H-1,2,4-triazol-3-yl]amino]-benzenesulfonamide]: the IC50 was 3 nM on CDK1:Cyclin-B (CDK1 IC50, Kinase Selectivity, Tables 2a-2k); 3.2 nM at CDK1:Cyclin-B (CDK1 IC50, Table 1); 23.4 nM in experiment [1]; 23 nM in [1] (setting [10]); 316 nM against Insulin Receptor Kinase; over 100000 nM at Protein Kinase A. Also, the IC50 in [5] is over 10000 nM; in experiment [6], over 10000 nM; in experiment [2], 4 nM; in [3], over 10000 nM; in [4], 39 nM; in [7], 5 nM.
`Nc1nc(Nc2ccc(S(N)(=O)=O)cc2)nn1C(=S)Nc1c(F)cccc1F` [Cpd 66, 5-amino-3-[[4-(aminosulfonyl)phenyl]amino]-N-(2,6-difluorophenyl)-1H-1,2,4-triazole-1-carbothioamide]: the IC50 was 0.6 nM at CDK1:Cyclin-B (setting [9]); 0.6 nM at CDK1:Cyclin-B (Table 1, read-out: CDK1 IC50); over 100000 nM in experiment [5] (setting [11]); 1580 nM in experiment [4] (setting [13]); 60 nM in experiment [7] (setting [14]); 60 nM in [7] (Table 1, read-out: HER2 IC50).
On to `Nc1nc(Nc2ccc(S(N)(=O)=O)cc2)nn1C(=O)Nc1c(F)cccc1F` [Cpd 67, 5-amino-3-[[4-(aminosulfonyl)phenyl]amino]-N-(2,6-difluorophenyl)-1H-1,2,4-triazole-1-carboxamide], for which the IC50 is 3.7 nM at CDK1:Cyclin-B (Table 1, read-out: CDK1 IC50); 38 nM in experiment [1] (Table 1, read-out: VEGF-R IC50); 1.4 nM in experiment [8]; 52 nM in experiment [7] (Table 1, read-out: HER2 IC50).
For `CCNS(=O)(=O)c1ccc(Nc2nc(N)n(C(=O)c3c(F)cccc3F)n2)cc1` [Cpd 76, 4-[[5-amino-1-(2,6-difluorobenzoyl)-1H-1,2,4-triazol-3-yl]amino]-N-ethyl-benzenesulfonamide], in that order: 12 nM, 530 nM, 4.4 nM and about 1000 nM.
On to `Cc1ccc(F)c(C(=O)n2nc(Nc3ccc(-n4ccnc4)cc3)nc2N)c1F` [Cpd 94, 1-(2,6-difluoro-3-methylbenzoyl)-N^3-[4-(1H-imidazol-1-yl)phenyl]-1H-1,2,4-triazole-3,5-diamine], for which the IC50 at CDK1:Cyclin-B (Table 1, read-out: CDK1 IC50) turned out to be 272 nM; in experiment [1] (Table 1, read-out: VEGF-R IC50) it was 409 nM; in experiment [7] (Table 1, read-out: HER2 IC50) it was 147 nM.
For the compound `Cc1ccc(F)c(C(=O)n2nc(Nc3ccc(-n4cncn4)cc3)nc2N)c1F` [Cpd 95, 1-(2,6-difluoro-3-methylbenzoyl)-N^3-[4-(1H-1,2,4-triazol-1-yl)phenyl]-1H-1,2,4-triazole-3,5-diamine], the IC50 was determined as 139 nM at CDK1:Cyclin-B (Table 1, read-out: CDK1 IC50); 260 nM in [1] (Table 1, read-out: VEGF-R IC50); 914 nM in [7] (Table 1, read-out: HER2 IC50).
As to `Nc1nc(Nc2ccc(-n3cncn3)cc2)nn1C(=O)c1c(F)cccc1F` [Cpd 96, 1-(2,6-difluorobenzoyl)-N^3-[4-(1H-1,2,4-triazol-1-yl)phenyl]-1H-1,2,4-triazole-3,5-diamine], the IC50 on CDK1:Cyclin-B (Table 1, read-out: CDK1 IC50) is 373 nM; in [1] (Table 1, read-out: VEGF-R IC50), 817 nM; in experiment [7] (Table 1, read-out: HER2 IC50), 1410 nM.
For the compound `CCc1ccc(C(=O)n2nc(Nc3ccc(-n4cncn4)cc3)nc2N)s1` [Cpd 97, 1-[(5-ethyl-2-thienyl)carbonyl]-N^3-[4-(1H-1,2,4-triazol-1-yl)phenyl]-1H-1,2,4-triazole-3,5-diamine], the IC50 on CDK1:Cyclin-B (Table 1, read-out: CDK1 IC50) was about 100 nM; in experiment [1] (Table 1, read-out: VEGF-R IC50) it was about 100 nM; in experiment [7] (Table 1, read-out: HER2 IC50), about 10 nM.
With `Cc1cc(C)c(C(=O)n2nc(Nc3ccc(-n4cncn4)cc3)nc2N)s1` [Cpd 98, 1-[(3,5-dimethyl-2-thienyl)carbonyl]-N^3-[4-(1H-1,2,4-triazol-1-yl)phenyl]-1H-1,2,4-triazole-3,5-diamine], the IC50 is over 100 nM on CDK1:Cyclin-B (Table 1, read-out: CDK1 IC50); about 100 nM in experiment [1] (Table 1, read-out: VEGF-R IC50); about 100 nM in experiment [7] (Table 1, read-out: HER2 IC50).
Consider `Nc1nc(Nc2ccc(-n3cnnc3)cc2)nn1C(=O)c1c(F)cccc1F` [Cpd 100, 1-(2,6-difluorobenzoyl)-N^3-[4-(4H-1,2,4-triazol-4-yl)phenyl]-1H-1,2,4-triazole-3,5-diamine], for which the half-inhibitory concentration (IC50) on CDK1:Cyclin-B (Table 1, read-out: CDK1 IC50) turned out to be 340 nM; in experiment [1] (Table 1, read-out: VEGF-R IC50), 1100 nM; in experiment [7] (Table 1, read-out: HER2 IC50) it was 1290 nM.
For `Cc1ccc(F)c(C(=O)n2nc(Nc3ccc(-n4cnnc4)cc3)nc2N)c1F` [Cpd 101, 1-(2,6-difluoro-3-methylbenzoyl)-N^3-[4-(4H-1,2,4-triazol-4-yl)phenyl]-1H-1,2,4-triazole-3,5-diamine], in that order: 143 nM, 650 nM and 819 nM.
For `Cc1ccsc1C(=O)n1nc(Nc2ccc(-n3cnnc3)cc2)nc1N` [Cpd 102, 1-[(3-methyl-2-thienyl)carbonyl]-N^3-[4-(4H-1,2,4-triazol-4-yl)phenyl]-1H-1,2,4-triazole-3,5-diamine], in that order: 2350 nM, 1100 nM and 2260 nM.
Turning to `CS(=O)(=O)Nc1ccc(Nc2nc(N)n(C(=O)c3c(F)cccc3F)n2)cc1` [Cpd 111], the IC50 was 150 nM on CDK1:Cyclin-B (Table 1, read-out: CDK1 IC50); 702 nM in [1] (Table 1, read-out: VEGF-R IC50); 16800 nM in experiment [7] (Table 1, read-out: HER2 IC50).
The matching figures for `Cc1ccc(F)c(C(=O)n2nc(Nc3ccc(NS(C)(=O)=O)cc3)nc2N)c1F` [Cpd 112]: 87 nM, 704 nM and 16400 nM.
On to `Nc1nc(Nc2cccc(Cl)c2)n(C(=O)c2c(F)cccc2F)n1` [Cpd 126, N^5-(3-chlorophenyl)-1-(2,6-difluorobenzoyl)-1H-1,2,4-triazole-3,5-diamine], for which the IC50 at CDK1:Cyclin-B (setting [9]) was over 100000 nM; in [1] (setting [10]), over 100000 nM; in [2] (setting [12]), over 100000 nM; in experiment [7] (setting [14]), about 100000 nM.
For `Nc1nc(Nc2cccc(Cl)c2)n(C(=O)c2ccccc2)n1` [Cpd 127, 1-benzoyl-N^5-(3-chlorophenyl)-1H-1,2,4-triazole-3,5-diamine], the IC50 (at CDK1:Cyclin-B (setting [9]); in experiment [1] (setting [10]); in experiment [2] (setting [12]); in experiment [7] (setting [14])) was over 100000 nM in each case.
